In ChEMBL document CHEMBL1221224, “Inhibition of Wnt signaling by Dishevelled PDZ peptides” (Nat Chem Biol, 2009):
Active and inactive are the calls of the source. No cut-off for these calls is given here. Where a SMILES comes first, the peptide text is derived from it.

How the values were obtained:
[1] = molecular target: T1, Segment polarity protein dishevelled homolog DVL-2 (Homo sapiens, UniProt O14641); assay: (§1) Binding affinity at Dvl2 PDZ domain after 15 mins by fluorescence polarization assay
T1 sequence (O14641 whole entry): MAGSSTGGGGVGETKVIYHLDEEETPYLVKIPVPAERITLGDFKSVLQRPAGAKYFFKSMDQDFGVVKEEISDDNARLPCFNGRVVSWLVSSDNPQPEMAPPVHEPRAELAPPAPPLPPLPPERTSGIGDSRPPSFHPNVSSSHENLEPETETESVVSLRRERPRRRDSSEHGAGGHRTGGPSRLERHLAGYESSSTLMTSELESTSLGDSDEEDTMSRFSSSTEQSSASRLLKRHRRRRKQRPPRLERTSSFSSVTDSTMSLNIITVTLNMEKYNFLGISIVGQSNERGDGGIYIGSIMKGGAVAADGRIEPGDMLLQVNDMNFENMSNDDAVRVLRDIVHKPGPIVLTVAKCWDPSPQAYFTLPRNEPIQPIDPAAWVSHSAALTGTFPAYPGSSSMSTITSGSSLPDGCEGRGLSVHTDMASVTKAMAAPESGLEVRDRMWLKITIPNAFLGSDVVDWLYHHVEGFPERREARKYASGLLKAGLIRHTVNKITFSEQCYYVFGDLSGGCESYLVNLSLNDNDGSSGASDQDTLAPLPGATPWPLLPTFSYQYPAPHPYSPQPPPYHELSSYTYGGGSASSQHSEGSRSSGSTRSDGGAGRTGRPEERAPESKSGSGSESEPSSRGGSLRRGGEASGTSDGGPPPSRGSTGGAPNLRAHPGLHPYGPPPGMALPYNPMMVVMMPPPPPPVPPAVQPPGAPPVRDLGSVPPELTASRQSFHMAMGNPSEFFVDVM

[2] = Cytotoxicity in human HEK293S cells assessed as cell viability at 33 uM after 18 hrs by differential interference contrast microscopy; format: cell-based
HEK293 = assay: Inhibition of Dvl mediated Wnt3a signaling in human HEK293 cells assessed as […] accumulation at 10 uM after 18 hrs by Western blot method; format: cell-based
[3] = Drug uptake in human HEK293S cells after 1 hr by time-lapse microscopy; format: ADME, cell-based
[4] = molecular target: T2, Segment polarity protein dishevelled homolog DVL-3 (Homo sapiens) (UniProt Q92997); assay: Inhibition of Dvl3 overexpressed in human HEK293S assessed as inhibition of […]/TCF reporter signaling at 20 uM after 18 hrs by TOPglow reporter assay
T2 sequence (whole entry): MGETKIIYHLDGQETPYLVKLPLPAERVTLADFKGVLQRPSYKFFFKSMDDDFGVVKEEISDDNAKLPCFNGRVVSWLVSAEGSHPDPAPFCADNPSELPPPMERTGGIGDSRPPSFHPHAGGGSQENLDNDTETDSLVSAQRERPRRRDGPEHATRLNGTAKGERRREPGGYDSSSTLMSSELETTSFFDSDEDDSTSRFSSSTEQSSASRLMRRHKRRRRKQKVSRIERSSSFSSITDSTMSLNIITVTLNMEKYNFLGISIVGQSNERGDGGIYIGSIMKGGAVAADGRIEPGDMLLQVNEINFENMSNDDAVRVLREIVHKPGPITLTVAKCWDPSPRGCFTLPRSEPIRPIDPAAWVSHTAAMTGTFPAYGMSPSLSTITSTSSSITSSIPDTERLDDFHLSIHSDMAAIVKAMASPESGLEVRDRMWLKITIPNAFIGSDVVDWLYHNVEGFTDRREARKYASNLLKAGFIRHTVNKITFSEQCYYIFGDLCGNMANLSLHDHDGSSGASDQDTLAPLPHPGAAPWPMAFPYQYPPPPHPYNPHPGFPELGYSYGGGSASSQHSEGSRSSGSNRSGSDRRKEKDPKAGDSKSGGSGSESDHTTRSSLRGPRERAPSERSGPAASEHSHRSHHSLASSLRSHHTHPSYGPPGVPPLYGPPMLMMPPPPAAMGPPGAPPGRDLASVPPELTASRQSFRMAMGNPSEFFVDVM

[5] = molecular target: T3, Segment polarity protein dishevelled homolog DVL-1 (Homo sapiens) (UniProt O14640); assay: Inhibition of Dvl1 overexpressed in human HEK293S assessed as inhibition of […]/TCF reporter signaling at 20 uM after 18 hrs by TOPglow reporter assay
T3 sequence (whole entry): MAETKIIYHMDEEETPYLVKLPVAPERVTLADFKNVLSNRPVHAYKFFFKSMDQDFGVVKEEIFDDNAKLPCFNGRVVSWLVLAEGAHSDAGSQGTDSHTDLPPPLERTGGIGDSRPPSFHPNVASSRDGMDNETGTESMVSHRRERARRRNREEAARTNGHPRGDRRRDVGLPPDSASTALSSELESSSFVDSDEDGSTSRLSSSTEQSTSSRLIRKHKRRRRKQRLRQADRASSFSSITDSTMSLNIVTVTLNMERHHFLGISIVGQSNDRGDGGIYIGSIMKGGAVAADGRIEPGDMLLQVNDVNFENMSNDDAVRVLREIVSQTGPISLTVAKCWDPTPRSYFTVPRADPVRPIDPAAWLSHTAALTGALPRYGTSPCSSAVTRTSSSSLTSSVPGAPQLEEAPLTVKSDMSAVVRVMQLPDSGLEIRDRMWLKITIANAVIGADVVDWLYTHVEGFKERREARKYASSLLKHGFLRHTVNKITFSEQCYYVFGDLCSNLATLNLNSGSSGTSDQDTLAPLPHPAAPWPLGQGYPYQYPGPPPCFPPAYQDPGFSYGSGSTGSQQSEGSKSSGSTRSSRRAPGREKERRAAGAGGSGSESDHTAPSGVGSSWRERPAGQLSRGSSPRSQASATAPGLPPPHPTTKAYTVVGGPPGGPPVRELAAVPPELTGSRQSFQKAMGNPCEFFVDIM

[6] = Inhibition of Dvl mediated Wnt3a/TCF signaling in human HEK293S cells after 18 hrs by TOPglow reporter assay
[7] = molecular target: T4, Segment polarity protein dishevelled homolog DVL-2 (Homo sapiens) (UniProt O14641); assay: Inhibition of Dvl2 overexpressed in human HEK293S assessed as inhibition of […]/TCF reporter signaling at 20 uM after 18 hrs by TOPglow reporter assay
T4 sequence (whole entry): T1 sequence (O14641 whole entry)

[8] = molecular target: T5, Catenin beta-1 (Homo sapiens) (UniProt P35222); assay: Inhibition of […] mediated […]/TCF reporter signaling in human HEK293S at 20 uM after 18 hrs by TOPglow reporter assay; format: functional
T5 sequence (whole entry): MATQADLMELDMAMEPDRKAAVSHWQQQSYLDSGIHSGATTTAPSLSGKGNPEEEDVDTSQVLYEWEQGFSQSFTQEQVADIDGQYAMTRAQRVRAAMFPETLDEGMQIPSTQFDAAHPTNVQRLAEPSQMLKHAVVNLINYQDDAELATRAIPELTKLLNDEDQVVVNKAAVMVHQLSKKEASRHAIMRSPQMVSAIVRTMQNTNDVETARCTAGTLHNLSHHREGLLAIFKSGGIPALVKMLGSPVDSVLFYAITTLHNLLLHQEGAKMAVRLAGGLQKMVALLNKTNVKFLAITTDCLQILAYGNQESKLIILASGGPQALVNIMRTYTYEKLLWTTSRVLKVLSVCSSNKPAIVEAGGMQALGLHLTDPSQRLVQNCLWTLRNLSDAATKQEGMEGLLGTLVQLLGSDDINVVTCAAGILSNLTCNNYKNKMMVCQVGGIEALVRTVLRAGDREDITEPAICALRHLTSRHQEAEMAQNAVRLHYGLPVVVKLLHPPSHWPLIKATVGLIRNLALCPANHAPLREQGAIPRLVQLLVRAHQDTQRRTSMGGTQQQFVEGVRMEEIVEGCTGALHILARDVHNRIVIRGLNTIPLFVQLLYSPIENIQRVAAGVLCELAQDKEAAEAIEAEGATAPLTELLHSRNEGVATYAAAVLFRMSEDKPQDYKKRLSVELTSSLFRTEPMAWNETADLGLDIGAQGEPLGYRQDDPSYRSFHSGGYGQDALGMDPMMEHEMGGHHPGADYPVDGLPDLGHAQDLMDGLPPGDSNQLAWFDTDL

[9] = molecular target: T2, Segment polarity protein dishevelled homolog DVL-3 (Homo sapiens); assay: Binding affinity at Dvl3 in human HEK293S lysate after 15 mins by pulldown and Western blot assays
HCT-15 = assay: Inhibition of Dvl mediated Wnt/TCF signaling in human HCT15 after 18 hrs by TOPglow reporter assay; format: cell-based
[10] = molecular target: T4, Segment polarity protein dishevelled homolog DVL-2 (Homo sapiens); assay: as §1
[11] = Cytotoxicity in human HEK293S cells assessed as cell viability at 100 uM after 18 hrs by differential interference contrast microscopy; format: cell-based
[12] = Cytotoxicity in human HEK293S cells assessed as cell viability at 300 uM after 18 hrs by differential interference contrast microscopy; format: cell-based

Structure (SMILES): CC[C@H](C)[C@H](NC(=O)[C@H](CC(=O)O)NC(=O)[C@H](CO)NC(=O)[C@H](Cc1c[nH]c2ccccc12)NC(=O)[C@H](CC(C)C)NC(=O)[C@@H](NC(=O)[C@@H](NC(=O)[C@H](CCC(=O)O)NC(=O)CN)[C@@H](C)CC)C(C)C)C(=O)O (H-GEIVLWSDI-OH)
- Ki [1]: 4.6 µM

Structure (SMILES): CC[C@H](C)[C@H](NC(=O)[C@H](Cc1c[nH]c2ccccc12)NC(=O)CNC(=O)[C@H](Cc1ccc(O)cc1)NC(=O)[C@H](CC(=O)O)NC(=O)[C@H](CCCCN)NC(=O)[C@@H](N)Cc1c[nH]c2ccccc12)C(=O)N[C@@H](CC(=O)O)C(=O)O (H-WKDYGWID-OH)
- Ki [1]: 1.2 µM

Structure (SMILES): CC[C@H](C)[C@H](NC(=O)[C@H](CCCCN)NC(=O)[C@@H](NC(=O)[C@H](CCC(N)=O)NC(=O)[C@H](CCCNC(=N)N)NC(C)=O)[C@@H](C)CC)C(=O)N[C@@H](Cc1c[nH]c2ccccc12)C(=O)N[C@@H](Cc1ccccc1)C(=O)N[C@@H](CCC(N)=O)C(=O)N[C@@H](CC(N)=O)C(=O)N[C@@H](CCCNC(=N)N)C(=O)N[C@@H](CCCNC(=N)N)C(=O)N[C@@H](CCSC)C(=O)N[C@@H](CCCCN)C(=O)N[C@@H](Cc1c[nH]c2ccccc12)C(=O)N[C@@H](CCCCN)C(=O)N[C@@H](CCCCN)C(=O)NCC(=O)NCC(=O)NCC(=O)N[C@@H](CCC(=O)O)C(=O)N[C@H](C(=O)N[C@H](C(=O)N[C@@H](CC(C)C)C(=O)N[C@@H](Cc1c[nH]c2ccccc12)C(=O)N[C@@H](CO)C(=O)N[C@@H](CC(=O)O)C(=O)N[C@H](C(=O)N1CCC[C@H]1C(N)=O)[C@@H](C)CC)C(C)C)[C@@H](C)CC
- Activity [2]: Non-toxic
- inhibition (HEK293): Active
- Drug uptake [3]: Active
- inhibition [4]: Active
- inhibition [5]: Active
- IC50 [6]: 11 µM
- inhibition [7]: Active
- inhibition [8]: inactive
- Activity [9]: Active
- inhibition (HCT-15): inactive

Structure (SMILES): CC[C@H](C)[C@H](NC(=O)[C@H](Cc1c[nH]c2ccccc12)NC(=O)[C@@H](NC(=O)[C@H](CCC(=O)O)NC(=O)[C@H](CC(N)=O)NC(=O)CNC(=O)[C@@H](N)CO)C(C)C)C(=O)N[C@@H](CC(=O)O)C(=O)NCC(=O)N1CCC[C@H]1C(=O)O (H-SGNEVWIDGP-OH)
- Activity [10]: Active

Structure (SMILES): CCCCC(O)c1[nH]c2cc(C)c(C(=O)O)cc2c1CCc1ccccc1 (configuration not stated)
- Activity [11]: Toxic
- Activity [12]: Toxic
- IC50 [6]: > 100 µM

Structure (SMILES): NCCCC[C@H](NC(=O)[C@@H](N)Cc1c[nH]c2ccccc12)C(=O)N[C@@H](Cc1c[nH]c2ccccc12)C(=O)N[C@@H](Cc1ccc(O)cc1)C(=O)NCC(=O)N[C@@H](Cc1c[nH]c2ccccc12)C(=O)N[C@@H](Cc1ccccc1)C(=O)O (H-WKWYGWF-OH)
- Ki [1]: 0.7 µM
